Consider 14 molecules from ChEMBL document CHEMBL1130885, “A potent and selective inhibition of parainfluenza 1 (Sendai) virus by new 6-oxiranyl-, 6-methyloxiranyluracils, and 4(3H)-pyrimidinone derivatives” (1998).

Molecules are shown by their SMILES. Bounds are passed on as bounds.

In general, CC50 refers to the concentration giving 50% cytotoxicity. A low value points to harm at low concentration.

Assay [1] concerns MDCK. The assay is described as follows: Antiviral activity against parainfluenza 1 (sendai) virus was determined in madin Darby canine kidney (MDCK)i cells. The assay is classed as functional, Canis lupus familiaris. The settings on record: read-out: ED50 (the source's name).
The subject of assay [2] is MDCK. Kind of assay: Minimum toxic concentration required to cause microscopically detectable alteration of confluent madin Darby canine kidney (MDCK)cell morphology. The assay is classed as functional, Canis lupus familiaris.
A further assay is filed under the species Mus musculus. Kind of assay: Inhibitory concentration required to inhibit proliferation in mouse myeloma cells. In kind it is functional.

Take `C[C@H]1O[C@@]1(C)Cc1cc(=O)n(C)c(=O)n1C`: the EC50 in the assay with MDCK [1] (Canis lupus familiaris, MDCK) is above 2 µM. The same molecule showed an MTC with MDCK [2] above 2 µM. For the same molecule, the CC50 in the assay filed under Mus musculus (Mus musculus) came out at 89 µM.
In the same order, the values of `C[C@@H]1O[C@@]1(C)Cc1cc(=O)n(C)c(=O)n1C` are above 2 µM, above 2 µM and 89 µM.
In the same order, the values of `Cn1c(CC2(C)CO2)cc(=O)n(C)c1=O` (configuration not stated) are 0.24 µM, 0.48 µM and 4 µM.
The like results for `Cn1c(CC2(C(C)(C)C)CO2)cc(=O)n(C)c1=O` (configuration not stated) were, in that order, 0.59 µM, above 0.79 µM and 7.9 µM.
In the case of `Cn1c(CC2(c3ccccc3)CO2)cc(=O)n(C)c1=O` (configuration not stated), in the assay with MDCK [1] (Canis lupus familiaris, MDCK), the EC50 was 0.18 µM. The molecule further showed an MTC in the assay with MDCK [2] of 0.37 µM. In addition, the midpoint of cytotoxicity in the assay filed under Mus musculus (Mus musculus), the CC50, lay at 3.7 µM.
For `CCCOc1nc(CC23CCCCC2O3)cc(=O)n1C` (configuration not stated), the EC50 in the assay on MDCK [1] (Canis lupus familiaris, MDCK) was found to be 176 µM. Also, the MTC in the assay on MDCK [2] was above 352 µM. Moreover, the CC50 in the assay listed under Mus musculus (Mus musculus) was above 352 µM.
In the same order, the values of `Cn1c(C2OC2(C)c2ccccc2)cc(=O)n(C)c1=O` (configuration not stated) are 0.47 µM, above 0.81 µM and 7.3 µM.
The like results for `CCCOc1nc(CC2(c3ccccc3)CO2)cc(=O)n1C` (configuration not stated) were, in that order, 16.6 µM, 330 µM and above 30 µM.
In the same order, the values of `Cn1c(CC23CCCC2O3)cc(=O)n(C)c1=O` (configuration not stated) are 0.42 µM, above 0.84 µM and 8.4 µM.
Regarding `Cn1c(OC2CCCCC2)nc(CC2(c3ccccc3)CO2)cc1=O` (configuration not stated), in the assay with MDCK [1] (Canis lupus familiaris, MDCK), the EC50 is 147 µM. The molecule also showed an MTC with MDCK [2] of 294 µM. For the same molecule, in the assay filed under Mus musculus (Mus musculus), the CC50 is above 294 µM.
Take `Cn1c(CC23CCCCC2O3)cc(=O)n(C)c1=O` (configuration not stated): the EC50 in the assay with MDCK [1] (Canis lupus familiaris, MDCK) is above 2 µM. Also, the MTC in the assay with MDCK [2] is above 2 µM. Moreover, in the assay filed under Mus musculus (Mus musculus), the 50% cytotoxic concentration (CC50) worked out at 40 µM.
In the case of `CC1OC1(C)Cc1cc(=O)n(C)c(OC2CCCCC2)n1` (configuration not stated), in the assay with MDCK [1] (Canis lupus familiaris, MDCK), the EC50 was determined as 171 µM. This molecule also displayed an MTC in the assay with MDCK [2] of 342 µM. This molecule also came in with a CC50 in the assay filed under Mus musculus (Mus musculus) above 342 µM.
Turning to `Cn1c(C2OC2c2ccccc2)cc(=O)n(C)c1=O` (stereo in doubt; 6b), in the assay on MDCK [1], the EC50 was 0.38 µM. In the assay with MDCK [2], this molecule came in with an MTC above 0.8 µM. In addition, in the assay listed under Mus musculus, the CC50 is 7.7 µM.
In the same order, the values of `Cn1c(C2OC2c2ccccc2)cc(=O)n(C)c1=O` (stereo in doubt; 6c) are 193 µM, 380 µM and above 380 µM.
